In US20210395256A1, “TYROSINE KINASE INHIBITORS, COMPOSITIONS AND METHODS THERE OF” (Betta Pharmaceuticals Co., Ltd., priority 2018, published 2021):

Tests used:
[1] = target: TrkA kinase (Homo sapiens, UniProt P04629); assay: TrkA kinase assay (mobility shift assay); assay type: biochemical; conditions: numeric values; read-out: Trk A Kinase IC50
In short: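 Caliper mobility-shift readout of FAM-labelled peptide conversion by TrkA in 50 mM HEPES pH 7.5, 0.0015% Brij-35, with ATP; enzyme preincubated 10 min with compound (10-point dilution), reaction at 28 °C, EDTA stop. Inhibition relative to DMSO and no-enzyme controls; IC50 by four-parameter fit.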

[2] = Liver microsomes metabolic stability assay, mouse; assay type: in vitro ADME; conditions: male, mouse liver microsomes 0.5 mg/mL, 37° C.; for half-life at 2 μM: read-out: t1/2 Mouse
In short: (§1)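 Pooled human, male rat or male mouse liver microsomes (0.5 mg/mL final) incubated at 37° C with 2 μM compound, with or without 1 mM NADPH. Samples at 0-60 min quenched in cold acetonitrile and analyzed by LC-MS/MS in duplicate. t1/2 derived from ln(% remaining) vs time slope, converted to CLint (μL/min/mg).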

[3] = Liver microsomes metabolic stability assay, rat; assay type: in vitro ADME; conditions: male, rat liver microsomes 0.5 mg/mL, 37° C.; for half-life at 2 μM: read-out: t1/2 Rat
In short: as §1

[4] = Liver microsomes metabolic stability assay, human; assay type: in vitro ADME; conditions: human liver microsomes 0.5 mg/mL, 37° C.; for half-life at 2 μM: read-out: t1/2 Human
In short: as §1

[5] = target: T1, Ba/F3-TPM3-NTRK1 (Homo sapiens, UniProt P04629); assay: Ba/F3-TPM3-NTRK1 cells proliferation assay; assay type: cell-based; conditions: 72 h, CellTiter Glo
T1 construct: expressed in transfected cells; host or cells: Ba/F3; the other entry of the earlier key: TPM3 (P06753, Tropomyosin alpha-3 chain)
T1 sequence (P04629 510-796 limits assumed): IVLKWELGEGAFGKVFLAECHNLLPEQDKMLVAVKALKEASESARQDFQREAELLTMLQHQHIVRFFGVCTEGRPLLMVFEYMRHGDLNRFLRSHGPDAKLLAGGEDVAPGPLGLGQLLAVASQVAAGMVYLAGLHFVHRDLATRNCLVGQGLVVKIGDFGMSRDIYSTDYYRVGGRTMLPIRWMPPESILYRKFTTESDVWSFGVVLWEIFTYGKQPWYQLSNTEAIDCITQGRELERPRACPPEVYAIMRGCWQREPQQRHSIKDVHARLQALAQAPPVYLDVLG
In short: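 Ba/F3 cells stably expressing TPM3-NTRK1 or ETV6-NTRK3 fusions, 2000/well, exposed 72 h to compound at 300 to 0.05 nM final (3-fold series, 0.5% DMSO). Viability by CellTiter-Glo luminescence; IC50 by four-parameter nonlinear regression.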

[6] = target: NTRK1-G595R (Homo sapiens, UniProt P04629, G595R); assay: NTRK1-G595R cell proliferation assay (Table 13); assay type: cell-based
Chain of NTRK1-G595R (P04629 33-796 G595R): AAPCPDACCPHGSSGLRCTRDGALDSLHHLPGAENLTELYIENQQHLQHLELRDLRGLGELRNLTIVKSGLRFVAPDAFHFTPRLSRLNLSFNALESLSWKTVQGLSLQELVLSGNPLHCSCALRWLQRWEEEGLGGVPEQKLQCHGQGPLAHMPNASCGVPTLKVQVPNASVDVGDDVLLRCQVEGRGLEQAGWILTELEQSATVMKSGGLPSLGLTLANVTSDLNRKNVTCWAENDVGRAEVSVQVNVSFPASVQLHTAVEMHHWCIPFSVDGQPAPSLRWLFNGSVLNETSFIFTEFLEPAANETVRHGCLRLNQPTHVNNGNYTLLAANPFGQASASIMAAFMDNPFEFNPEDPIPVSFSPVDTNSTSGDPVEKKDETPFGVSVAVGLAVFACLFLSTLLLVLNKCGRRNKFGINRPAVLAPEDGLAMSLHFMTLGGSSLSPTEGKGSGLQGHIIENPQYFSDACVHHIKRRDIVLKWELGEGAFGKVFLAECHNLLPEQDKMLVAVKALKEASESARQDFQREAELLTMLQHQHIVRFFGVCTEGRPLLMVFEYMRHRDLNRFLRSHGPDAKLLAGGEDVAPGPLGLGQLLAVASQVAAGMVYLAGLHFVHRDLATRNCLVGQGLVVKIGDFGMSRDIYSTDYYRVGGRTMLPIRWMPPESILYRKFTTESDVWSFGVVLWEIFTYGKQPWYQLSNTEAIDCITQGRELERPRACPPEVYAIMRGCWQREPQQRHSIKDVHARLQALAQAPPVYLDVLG

[7] = target: T2, Ba/F3-ETV6-NTRK3 (Homo sapiens, UniProt Q16288); assay: Ba/F3-ETV6-NTRK3 cells proliferation assay; assay type: cell-based; conditions: 72 h, CellTiter Glo
T2 construct: Ba/F3 cells with TPM3-NTRK1 or ETV6-NTRK3 fusion mutation gene stably overexpressed named Ba/F3-TPM3-NTRK1 and Ba/F3-ETV6-NTRK3; fused on or other part: P41212 (Transcription factor ETV6)
T2 sequence (Q16288 whole entry, the tested form may be a part): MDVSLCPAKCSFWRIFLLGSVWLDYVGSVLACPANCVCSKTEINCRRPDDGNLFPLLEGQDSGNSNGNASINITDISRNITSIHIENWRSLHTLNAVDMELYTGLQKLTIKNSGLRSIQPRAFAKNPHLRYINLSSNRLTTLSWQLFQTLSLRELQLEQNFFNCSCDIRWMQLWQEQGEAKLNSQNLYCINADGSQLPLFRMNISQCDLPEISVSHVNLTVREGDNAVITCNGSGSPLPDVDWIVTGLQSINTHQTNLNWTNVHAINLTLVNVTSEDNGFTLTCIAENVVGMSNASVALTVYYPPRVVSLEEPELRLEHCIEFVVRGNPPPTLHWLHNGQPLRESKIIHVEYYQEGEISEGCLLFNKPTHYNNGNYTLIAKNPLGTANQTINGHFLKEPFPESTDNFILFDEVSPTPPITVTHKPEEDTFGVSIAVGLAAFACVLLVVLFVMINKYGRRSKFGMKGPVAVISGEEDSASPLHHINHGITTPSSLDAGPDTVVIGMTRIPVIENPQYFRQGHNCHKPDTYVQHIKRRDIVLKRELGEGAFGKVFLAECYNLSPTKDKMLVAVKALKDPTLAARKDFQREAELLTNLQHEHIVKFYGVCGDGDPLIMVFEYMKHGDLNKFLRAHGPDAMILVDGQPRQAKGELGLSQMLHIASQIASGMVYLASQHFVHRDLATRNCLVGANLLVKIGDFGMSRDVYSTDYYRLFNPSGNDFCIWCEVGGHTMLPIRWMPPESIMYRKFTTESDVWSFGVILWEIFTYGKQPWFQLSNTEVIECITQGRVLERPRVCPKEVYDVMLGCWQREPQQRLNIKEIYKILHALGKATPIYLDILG
Protocol: Example 202 Ba/F3-TPM3-NTRK1 and Ba/F3-ETV6-NTRK3 cells proliferation assay
Cell line: Ba/F3 cells with TPM3-NTRK1 or ETV6-NTRK3 fusion mutation gene stably overexpressed named Ba/F3-TPM3-NTRK1 and Ba/F3-ETV6-NTRK3.
RPMI 1640 and 10% FBS and 1% PS and 2 ug/mL puromycin.
b) Collect cell to a 15 mL centrifuged tube, centrifuge at 1000 rpm for 5 min. Discard the supernatant, count, and make the cell density at 1.49×10^4 cells/mL, then place it in a 37° C., 5% CO2 incubator.
a) The test compound (20 mM stock solution) was diluted to 60 μM with 100% DMSO as starting concentration then 3-fold serial diluted with “9+0” concentrations. in a 96-well dilution plate (Thermo, Cat. No. 249944);
b) The above compound solution was diluted 1:20 times with culture medium to prepare a 10 fold working solution;
a) Take cells in log phase growth, centrifuge at 1000 rpm for 5 min, then resuspend the cells with culture medium, then count cells;
b) Cells were seeded to 96-well cell culture plate with density at 2000 cells/well;
a) Compounds prepared at step 2 were added to cell plate with 15 μL per well, the final concentrations were 300, 100, 33.33, 11.11, 3.70, 1.23, 0.41, 0.14, 0.05 and 0 nM, and the final concentration of DMSO was 0.5%. The blank control well was a culture medium (0.5% DMSO);
c) The cells were incubated for an additional 72 h in the incubator.
a) Remove the 96-well cell culture plate and add 50 μl of CTG reagent (CellTiter Glo kit, promega, Cat #G7573).
b) Plate was shaked for 2 min and then let it cool for 30 min at room temperature.
c) The Luminescence signal value was read using a PerkinElmer reader.
Experimental Data Analysis
Data were analyzed using GraphPad Prism 6.0 software to obtain a fitted curve of compound activity.
Fit the Compound IC50 from non-linear regression equation:
Y=Bottom+(Top-Bottom)/(1+10^((Log IC50-X)×HillSlope));
X: The log of the concentration of the compound; Y: Luminescence value.

Chain of TrkA kinase (P04629 33-796): as the sequence (P04629 33-796 G595R) above, with R563G counted along it

Row | SMILES | IC50 [1] | microsomal CLint at 2 μM [2] | half-life at 2 μM [2] | microsomal CLint at 2 μM [3] | half-life at 2 μM [3] | microsomal CLint at 2 μM [4] | half-life at 2 μM [4] | IC50 [5] | IC50 [6] | IC50 [7]
1 | N#Cc1cc2nc(-c3cnn4ccc(N5CCC[C@@H]5c5cc(F)ccc5F)nc34)[nH]c2cc1C#N [Compound 148, (R)-2-(5-(2-(2,5-difluorophenyl)pyrrolidin-1-yl)pyrazolo[1,5-a]pyrimidin-3-yl)-1H-benzo[d]imidazole-5,6-dicarbonitrile] | 1.5 nM | 14 µL/min/mg | 99 min | 3.6 µL/min/mg | 385 min | 1.2 µL/min/mg | 1160 min | 2.19 nM | 81.8 nM | 1.56 nM
2 | N#Cc1cc2nc(-c3cnn4ccc(N5CCC[C@@H]5c5cc(F)ccc5F)nc34)[nH]c2cc1OC(F)F [Compound 156, (R)-6-(difluoromethoxy)-2-(5-(2-(2,5-difluorophenyl)pyrrolidin-1-yl)pyrazolo[1,5-a]pyrimidin-3-yl)-1H-benzo[d]imidazole-5-carbonitrile] | 4.8 nM | – | – | – | – | – | – | 3.92 nM | 183 nM | 5.65 nM
3 | COc1cc2nc(-c3cnn4ccc(N5CCC[C@@H]5c5cc(F)ccc5F)nc34)[nH]c2cc1C#N [Compound 125, (R)-2-(5-(2-(2,5-difluorophenyl)pyrrolidin-1-yl)pyrazolo[1,5-a]pyrimidin-3-yl)-5-methoxy-1H-benzo[d]imidazole-6-carbonitrile] | 1.1 nM | 16.4 µL/min/mg | 84.5 min | 15 µL/min/mg | 92.4 min | 17.2 µL/min/mg | 80.6 min | 1.38 nM | 46.6 nM | 2.21 nM
4 | CNC(=O)c1cc2nc(-c3cnn4ccc(N5CCC[C@@H]5c5cc(F)ccc5F)nc34)[nH]c2cc1OC [Compound 160, (R)-2-(5-(2-(2,5-difluorophenyl)pyrrolidin-1-yl)pyrazolo[1,5-a]pyrimidin-3-yl)-6-methoxy-N-methyl-1H-benzo[d]imidazole-5-carboxamide] | 0.43 nM | 105 µL/min/mg | 13.2 min | 92.4 µL/min/mg | 15 min | 56.2 µL/min/mg | 24.7 min | 1.06 nM | 15.6 nM | 2.05 nM
5 | COC(=O)c1cc2nc(-c3cnn4ccc(N5CCC[C@@H]5c5cc(F)ccc5F)nc34)[nH]c2cc1OC [Compound 155, methyl (R)-2-(5-(2-(2,5-difluorophenyl)pyrrolidin-1-yl)pyrazolo[1,5-a]pyrimidin-3-yl)-6-methoxy-1H-benzo[d]imidazole-5-carboxylate] | 0.6 nM | – | – | – | – | – | – | 1.2 nM | 18.2 nM | 0.53 nM

More lines, now with the values ahead:

Row | IC50 [1] | microsomal CLint at 2 μM [2] | half-life at 2 μM [2] | microsomal CLint at 2 μM [3] | half-life at 2 μM [3] | microsomal CLint at 2 μM [4] | half-life at 2 μM [4] | IC50 [5] | IC50 [6] | IC50 [7] | SMILES
6 | 1 nM | 71.2 µL/min/mg | 19.5 min | 58.2 µL/min/mg | 23.8 min | 45.4 µL/min/mg | 30.5 min | 3.41 nM | 216 nM | 2.63 nM | C[S+]([O-])c1cc2nc(-c3cnn4ccc(N5CCC[C@@H]5c5cc(F)ccc5F)nc34)[nH]c2cc1C#N (stereo partly drawn) [Compound 171, 2-(5-((R)-2-(2,5-difluorophenyl)pyrrolidin-1-yl)pyrazolo[1,5-a]pyrimidin-3-yl)-5-(methylsulfinyl)-1H-benzo[d]imidazole-6-carbonitrile]
7 | 0.6 nM | 32.4 µL/min/mg | 42.8 min | 44.8 µL/min/mg | 30.9 min | 41.6 µL/min/mg | 33.3 min | 2.08 nM | 257 nM | 2.49 nM | CS(=O)(=O)c1cc2nc(-c3cnn4ccc(N5CCC[C@@H]5c5cc(F)ccc5F)nc34)[nH]c2cc1C#N [Compound 172, (R)-2-(5-(2-(2,5-difluorophenyl)pyrrolidin-1-yl)pyrazolo[1,5-a]pyrimidin-3-yl)-5-(methylsulfonyl)-1H-benzo[d]imidazole-6-carbonitrile]
